# Reference: ChEMBL document CHEMBL1157572 (J Med Chem, 2010)
# What was measured:
# [1] = Antiproliferative activity against P-gp170/MDR expressing human KBVIN cells after 72 hrs by methylene blue dye assay; assay type: functional, cell-based
# NCI-H460 = test: Antiproliferative activity against human H460 cells after 72 hrs by methylene blue dye assay; assay type: functional, cell-based; details: NCI-H460, 72 h
# HT-29 = test: Antiproliferative activity against human HT-29 cells after 72 hrs by methylene blue dye assay; assay type: functional, cell-based; details: HT-29, 72 h
# KB = test: Antiproliferative activity against human KB cells after 72 hrs by methylene blue dye assay; assay type: functional, cell-based
# MKN-45 = test: Antiproliferative activity against human MKN45 cells after 72 hrs by methylene blue dye assay; assay type: functional, cell-based; details: MKN-45, 72 h
# [2] = Inhibition of tubulin polymerization by turbidimetric assay
# [3] = Displacement of [3H]colchicine from tubulin by at 5 uM scintillation proximity assay
# [4] = Displacement of [3H]colchicine from tubulin by at 1 uM scintillation proximity assay
smiles,measurement,setting,value
COc1cc(C(=O)c2cnc3ccccc3c2)cc(OC)c1OC,IC50,[1],1100 nM
same,IC50,NCI-H460,1600 nM
same,IC50,HT-29,1000 nM
same,IC50,KB,1800 nM
same,IC50,MKN-45,562 nM
COc1cc(C(=O)c2cccc3ncccc23)cc(OC)c1OC,IC50,[1],2300 nM
same,IC50,NCI-H460,3800 nM
same,IC50,HT-29,2800 nM
same,IC50,KB,2900 nM
same,IC50,MKN-45,1200 nM
COc1ccc2cc(C(=O)c3cc(OC)c(OC)c(OC)c3)ccc2n1,IC50,[1],202 nM
same,IC50,NCI-H460,256 nM
same,IC50,HT-29,206 nM
same,IC50,KB,301 nM
same,IC50,[2],> 10000 nM
same,IC50,MKN-45,138 nM
COc1cc(C(=O)c2ccc3cccnc3c2)cc(OC)c1OC,IC50,[1],> 10000 nM
same,IC50,NCI-H460,> 10000 nM
same,IC50,HT-29,> 10000 nM
same,IC50,KB,> 10000 nM
same,IC50,MKN-45,> 10000 nM
COc1cc(C(=O)c2ccc3c(N)c(OC)ccc3n2)cc(OC)c1OC,Activity,[3],97%
same,IC50,[1],0.2 nM
same,IC50,NCI-H460,0.4 nM
same,IC50,HT-29,0.4 nM
same,IC50,KB,0.3 nM
same,Activity,[4],90%
same,IC50,[2],1600 nM
same,IC50,MKN-45,0.3 nM
COc1cc(C(=O)c2ccnc3ccccc23)cc(OC)c1OC,IC50,[1],2200 nM
same,IC50,NCI-H460,3800 nM
same,IC50,HT-29,2300 nM
same,IC50,KB,3500 nM
same,IC50,MKN-45,920 nM
COc1cc(C(=O)c2ccnc3c(OC)cccc23)cc(OC)c1OC,IC50,[1],165 nM
same,IC50,NCI-H460,193 nM
same,IC50,HT-29,162 nM
same,IC50,KB,155 nM
same,IC50,MKN-45,147 nM
COc1cc(C(=O)c2ccc3ncccc3c2)cc(OC)c1OC,Activity,[3],72%
same,IC50,[1],21.5 nM
same,IC50,NCI-H460,36 nM
same,IC50,HT-29,24.6 nM
same,IC50,KB,24 nM
same,Activity,[4],51%
same,IC50,[2],2900 nM
same,IC50,MKN-45,16.3 nM
COc1cc(C(=O)c2cccc3cccnc23)cc(OC)c1OC,IC50,[1],6000 nM
same,IC50,NCI-H460,5000 nM
same,IC50,HT-29,4500 nM
same,IC50,KB,8100 nM
same,IC50,MKN-45,3200 nM
COc1cc(C(=O)c2ccc3c(ccc[n+]3C)c2)cc(OC)c1OC,IC50,[1],> 10000 nM
same,IC50,NCI-H460,> 10000 nM
same,IC50,HT-29,> 10000 nM
same,IC50,KB,> 10000 nM
same,IC50,MKN-45,> 10000 nM
COc1ccc2nc(C(=O)c3cc(OC)c(OC)c(OC)c3)ccc2c1,Activity,[3],68%
same,IC50,[1],21.5 nM
same,IC50,NCI-H460,61.5 nM
same,IC50,HT-29,77 nM
same,IC50,KB,27.2 nM
same,Activity,[4],40%
same,IC50,[2],3500 nM
same,IC50,MKN-45,150 nM
COc1ccc(/C=C\c2cc(OC)c(OC)c(OC)c2)cc1O [COMBRETASTATIN A4],Activity,[3],95%
same,IC50,[1],1.9 nM
same,IC50,NCI-H460,2.6 nM
same,IC50,HT-29,835 nM
same,IC50,KB,2.4 nM
same,Activity,[4],87%
same,IC50,[2],2100 nM
same,IC50,MKN-45,4.9 nM
COc1cc(C(=O)c2ccc3c(ccc[n+]3[O-])c2)cc(OC)c1OC,IC50,[1],764 nM
same,IC50,NCI-H460,1100 nM
same,IC50,HT-29,872 nM
same,IC50,KB,830 nM
same,IC50,MKN-45,617 nM
COc1cc(C(=O)c2ccc3ccccc3n2)cc(OC)c1OC,IC50,[1],117 nM
same,IC50,NCI-H460,180 nM
same,IC50,HT-29,148 nM
same,IC50,KB,174 nM
same,IC50,[2],> 10000 nM
same,IC50,MKN-45,246 nM
